Measured values reported in patent US11844823B2, “Beta-hairpin peptidomimetic with elastase inhibitory activity and aerosol dosage forms thereof” (POLYPHOR AG, priority 2016, dated 2023).
Non-standard residues stand in square brackets, D forms with d. Residues, ends and D or L forms follow the SMILES beside them. Gly(octyl) = CCCCCCCC[C@H](N)C(=O)O

Tests used:
[1] = system: cynomolgus monkeys; assay: GLP-compliant 28-day inhalation toxicity study in monkeys; type: in vivo, cynomolgus monkey
Experimental: In a GLP-compliant 28-day inhalation toxicity study in cynomolgus monkeys, conducted by Charles River Laboratories Preclinical Services, Tranent, Edinburgh, UK, the formulation described in Example 2 and dilutions thereof as well as the vehicle were administered using the Pari eFlow® XL 30 nebulizer device (Pari Pharma, Starnberg, Germany) with an oro-nasal inhalation mask for 60 min per day for 28 days, followed by a 2-week recovery period. […] In total five males and five females were used for each dose of the toxicity study including recovery. Parameters assessed included clinical signs, body weights, electrocardiology, ophthalmic examination, clinical pathology, toxicokinetic parameters in the plasma, gross necropsy findings, organ weights and histopathologic examinations.

[2] = target: T1, human neutrophil elastase (Homo sapiens, UniProt P08246); assay: Phase-1b study, active neutrophil elastase in sputum by FRET elastase assay; type: in vivo; conditions: CF patients; response appeared independent of dose; returned to baseline at 24 h
T1 construct: from tissue; host or cells: spontaneous sputum of patients with cystic fibrosis (PBS-soluble fraction)
T1 sequence (P08246 30-247 limits assumed): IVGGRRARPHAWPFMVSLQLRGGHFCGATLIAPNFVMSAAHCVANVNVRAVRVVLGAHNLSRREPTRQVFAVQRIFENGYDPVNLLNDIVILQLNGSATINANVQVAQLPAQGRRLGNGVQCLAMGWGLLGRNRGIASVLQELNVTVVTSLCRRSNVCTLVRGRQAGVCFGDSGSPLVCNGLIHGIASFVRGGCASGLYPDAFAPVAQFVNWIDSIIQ
Experimental: The pharmacodynamic effect of ascending single doses of active compound was investigated by evaluation of neutrophil elastase (NE) activity in sputum using FRET (fluorescence resonance energy transfer) assay after PBS aliquotation and freezing.
On the day of screening, if possible, for baseline assessment of NE activity, on Day −1 as soon as possible after the subject's arrival at the study site for baseline assessment of NE activity, on Day 1 in the period of time between 1 h and 3 h after start of inhalation, and in the morning of Day 2, at approx. 24 h after start of inhalation.
For evaluation of NE activity in sputum, at first, the weight of the sputum sample was determined and 8 mL cold phosphate-buffered saline (PBS) per gram purified sputum was added. […]
The NE activity in sputum was evaluated by using a FRET elastase assay adapted from an assay described in Nature Protocols, 2008, 3, 991 (B. Korkmaz, S. Attucci, M. A. Juliano et al.) and validated by MLM Medical Labs GmbH, Mönchengladbach, Germany.
The assay is based on the reaction of human neutrophil elastase with the substrate 2Abz-Ala-Pro-Glu-Glu-Ile-Met-Arg-Arg-Gln-Tyr(3NO2)—OH (GeneCust Europe S.A., Ellange, Luxembourg, #P160301-SY452824). […] The product of the reaction is detected through fluorescence measurement and the initial reaction velocity is determined. […]

## CCCCCCCC[C@@H]1NC(=O)[C@@H]2CCCN2C(=O)[C@H]2CCCN2C(=O)[C@H](Cc2ccc(O)cc2)NC(=O)[C@H](CCCCN)NC(=O)[C@H](CCC(N)=O)NC(=O)[C@@H]2CCCN2C(=O)[C@@H]2CCCN2C(=O)[C@H]([C@@H](C)CC)NC(=O)[C@H](CO)NC(=O)[C@H](C)NC(=O)[C@H]([C@@H](C)O)NC(=O)[C@H](CCC(=O)O)NC1=O [cyclo(-OctG-Glu-Thr-Ala-Ser-Ile-Pro-Pro-Gln-Lys-Tyr-^DPro-Pro-)] (cyclo([Gly(octyl)]ETASIPPQKY[dP]P))
[1]; cynomolgus monkey, in vivo
  histopathologic findings: increased numbers of alveolar macrophages, perivascular/peribronchiolar infiltrates, and granular eosinophilic deposits in the lung and lymphoid hyperplasia in the tracheobronchial lymph nodes
[1]; monkey, 11.2, 30.1 and 112 mg/kg/day
  body weight, clinical signs, ophthalmic, electrocardiographic findings, urinary parameters: no body weight changes, clinical signs, ophthalmic or electrocardiographic findings or changes in urinary parameters attributable to drug treatment
[2]
  mean concentration of active NE in sputum after single-dose inhalation: strongly decreased
